According to patent US20100216779A1 (GLAXOSMITHKLINE LLC, priority 2007, published 2010):

Assays:
Type in all cases: cell-based
COLO205 (colon) = experiment: Inhibition of cell proliferation, CellTiter-Glo, COLO205; settings: Homo sapiens, COLO 205, 72 h
Outline: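 Exponentially growing COLO205 cells in medium with 10% FBS were plated below 2000 cells/well at 37 °C, 5% CO2. Untreated wells served as controls.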

[1] = system: NCI-H929 (multiple myeloma); experiment: Inhibition of cell proliferation, CellTiter-Glo, NCI-H929; settings: Homo sapiens, 72 h
Outline: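 Cells were grown in medium with 10% FBS at 37° C, 5% CO2. Cell number was read as CellTiter-Glo luminescence (cellular ATP), with untreated wells as control.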

[2] = molecular target: T1, human IGF-1R (NIH-3T3 cells over expressing human IGF-1R) (Homo sapiens, UniProt P08069); experiment: IGF-1R cellular autophosphorylation (DELFIA); settings: IGF-1 stimulated
T1 construct: expressed in transfected cells; host or cells: NIH-3T3 (mouse fibroblasts)
Outline: (§1)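 Readout: DELFIA on lysates, with anti-IGF-1R or anti-IR capture and europium anti-pTyr detection, expressed relative to 100% ligand-stimulated signal. Human IGF-1R- or IR-overexpressing NIH-3T3 cells got compound (1.5 nM–30 uM) for 2 h before 15 min IGF-1 (30 ng/mL) or insulin (3 ug/mL).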

[3] = molecular target: T2, IR (NIH-3T3 cells over expressing human IGF-1R or IR) (Homo sapiens, UniProt P06213); experiment: IR cellular autophosphorylation (DELFIA); settings: NIH-3T3 cells over expressing IR, insulin stimulated
T2 construct: expressed in transfected cells; host or cells: NIH-3T3 (mouse fibroblasts)
Outline: as §1

T2 sequence (P06213 28-1382): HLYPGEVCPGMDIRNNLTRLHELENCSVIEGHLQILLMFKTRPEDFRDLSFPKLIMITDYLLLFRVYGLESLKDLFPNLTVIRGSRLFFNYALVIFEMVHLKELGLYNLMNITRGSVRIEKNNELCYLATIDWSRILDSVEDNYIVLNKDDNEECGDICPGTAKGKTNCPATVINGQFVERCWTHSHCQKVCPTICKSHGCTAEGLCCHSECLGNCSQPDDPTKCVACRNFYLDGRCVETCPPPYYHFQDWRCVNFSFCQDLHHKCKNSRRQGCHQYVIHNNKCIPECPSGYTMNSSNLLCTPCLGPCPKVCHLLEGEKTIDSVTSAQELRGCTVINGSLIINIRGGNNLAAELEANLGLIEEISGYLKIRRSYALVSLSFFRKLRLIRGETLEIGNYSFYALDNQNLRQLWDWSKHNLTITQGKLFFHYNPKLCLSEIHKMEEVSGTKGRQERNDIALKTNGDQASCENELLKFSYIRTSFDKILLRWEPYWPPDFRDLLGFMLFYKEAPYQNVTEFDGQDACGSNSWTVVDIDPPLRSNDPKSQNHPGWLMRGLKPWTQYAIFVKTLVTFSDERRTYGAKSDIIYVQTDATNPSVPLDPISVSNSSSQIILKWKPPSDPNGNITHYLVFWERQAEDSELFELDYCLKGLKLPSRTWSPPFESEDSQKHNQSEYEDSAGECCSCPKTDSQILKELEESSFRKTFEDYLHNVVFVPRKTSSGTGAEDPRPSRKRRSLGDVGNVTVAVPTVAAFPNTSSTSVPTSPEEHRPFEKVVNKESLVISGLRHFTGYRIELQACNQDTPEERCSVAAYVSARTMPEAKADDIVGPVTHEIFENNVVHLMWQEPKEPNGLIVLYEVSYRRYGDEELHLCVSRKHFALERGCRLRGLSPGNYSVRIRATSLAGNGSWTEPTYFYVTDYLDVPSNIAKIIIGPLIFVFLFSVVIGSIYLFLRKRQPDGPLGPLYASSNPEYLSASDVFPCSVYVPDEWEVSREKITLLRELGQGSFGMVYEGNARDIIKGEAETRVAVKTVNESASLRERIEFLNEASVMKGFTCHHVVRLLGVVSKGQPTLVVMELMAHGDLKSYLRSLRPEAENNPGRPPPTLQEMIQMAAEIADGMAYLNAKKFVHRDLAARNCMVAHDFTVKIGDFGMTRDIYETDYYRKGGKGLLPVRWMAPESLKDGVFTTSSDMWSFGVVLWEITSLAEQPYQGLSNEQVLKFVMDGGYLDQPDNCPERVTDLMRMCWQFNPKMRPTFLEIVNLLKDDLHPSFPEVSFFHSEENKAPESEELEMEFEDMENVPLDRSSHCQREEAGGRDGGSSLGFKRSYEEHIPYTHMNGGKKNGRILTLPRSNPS
T1 sequence (P08069 31-1367): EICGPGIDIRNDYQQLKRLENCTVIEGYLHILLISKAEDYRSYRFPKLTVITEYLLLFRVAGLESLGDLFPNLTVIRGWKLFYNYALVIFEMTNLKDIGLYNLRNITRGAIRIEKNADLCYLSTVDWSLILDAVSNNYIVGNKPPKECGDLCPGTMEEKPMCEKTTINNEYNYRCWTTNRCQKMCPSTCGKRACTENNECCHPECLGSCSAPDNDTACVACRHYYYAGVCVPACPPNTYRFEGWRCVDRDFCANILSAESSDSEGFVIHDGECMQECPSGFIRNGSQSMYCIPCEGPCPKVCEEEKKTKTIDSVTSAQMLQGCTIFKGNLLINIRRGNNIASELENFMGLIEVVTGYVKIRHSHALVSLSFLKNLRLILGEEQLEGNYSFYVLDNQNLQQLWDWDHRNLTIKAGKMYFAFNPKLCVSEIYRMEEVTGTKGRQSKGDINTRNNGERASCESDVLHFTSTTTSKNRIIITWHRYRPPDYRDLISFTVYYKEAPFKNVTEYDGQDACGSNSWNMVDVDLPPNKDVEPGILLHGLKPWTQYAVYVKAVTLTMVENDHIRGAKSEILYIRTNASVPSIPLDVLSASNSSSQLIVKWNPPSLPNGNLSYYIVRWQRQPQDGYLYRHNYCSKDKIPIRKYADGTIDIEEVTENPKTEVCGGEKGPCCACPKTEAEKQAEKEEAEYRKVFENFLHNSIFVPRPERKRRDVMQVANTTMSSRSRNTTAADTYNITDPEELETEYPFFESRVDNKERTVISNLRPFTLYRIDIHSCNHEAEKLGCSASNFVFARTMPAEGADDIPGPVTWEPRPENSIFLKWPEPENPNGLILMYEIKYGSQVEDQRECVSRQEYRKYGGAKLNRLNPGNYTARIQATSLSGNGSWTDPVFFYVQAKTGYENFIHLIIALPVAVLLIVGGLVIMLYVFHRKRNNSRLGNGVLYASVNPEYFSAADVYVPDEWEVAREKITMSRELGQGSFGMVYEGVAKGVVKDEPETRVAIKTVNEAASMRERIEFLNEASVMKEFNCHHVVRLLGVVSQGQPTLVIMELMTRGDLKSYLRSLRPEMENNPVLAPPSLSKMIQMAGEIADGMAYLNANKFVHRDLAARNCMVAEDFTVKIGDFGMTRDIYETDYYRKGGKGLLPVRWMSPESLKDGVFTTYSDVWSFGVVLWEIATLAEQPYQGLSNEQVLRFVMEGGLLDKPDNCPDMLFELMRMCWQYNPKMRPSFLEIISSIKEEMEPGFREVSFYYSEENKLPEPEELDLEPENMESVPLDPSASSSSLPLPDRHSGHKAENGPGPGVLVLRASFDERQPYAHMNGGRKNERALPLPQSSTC

| IC50 (COLO205 (colon)) | IC50 [1] | IC50 [2] | IC50 [3] | SMILES |
| --- | --- | --- | --- | --- |
| 250 to 1000 nM | < 250 nM | < 100 nM | < 100 nM | COc1cc(N2CCC(N3CCCCC3)CC2)ccc1Nc1nccc(-c2c(-c3cccc(C(=O)Nc4c(F)cccc4F)c3)nc3ccccn23)n1 [Example 22, 3-[3-(2-{[4-(1,4′-bipiperidin-1′-yl)-2-(methyloxy)phenyl]amino}-4-pyrimidinyl)imidazo[1,2-a]pyridin-2-yl]-N-(2,6-difluorophenyl)benzamide] |
| 250 to 1000 nM | < 250 nM | < 100 nM | < 100 nM | COc1cc(N2CCC(N3CCN(CCF)CC3)CC2)ccc1Nc1nccc(-c2c(-c3cccc(C(=O)Nc4c(F)cccc4F)c3)nc3ccccn23)n1 [Example 57, N-(2,6-difluorophenyl)-3-[3-(2-{[4-{4-[4-(2-fluoroethyl)-1-piperazinyl]-1-piperidinyl}-2-(methyloxy)phenyl]amino}-4-pyrimidinyl)imidazo[1,2-a]pyridin-2-yl]benzamide] |
